Results taken from patent US8802597B2, “Herbicidal pyrimidines” (E I du Pont de Nemours and Company, priority 2003, dated 2014).
Like-named read-outs stand apart in the source and are kept apart here.

Tests used:
Assay type in all cases: in vivo
[1] = system: blackgrass (Alopecurus myosuroides); test: Test B postemergence; details: Alopecurus myosuroides, post-emergence, scale 0 to 100 (0 no effect, 100 complete control), read-out: Blackgrass plant response rating
Procedure, shortened: (§1)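 Test chemicals in a non-phytotoxic solvent mixture with surfactant were applied preemergence to planted seeds and postemergence to plants 2 to 18 cm tall (1- to 4-leaf stage). After 13 to 15 days in a greenhouse, injury was visually rated against untreated controls on a 0 to 100 scale.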

[2] = system: wild oat (Avena fatua); test: Test B postemergence; details: Avena fatua, post-emergence, scale 0 to 100 (0 no effect, 100 complete control), read-out: Oat, Wild plant response rating
Procedure, shortened: as §1

[3] = system: barnyardgrass (Echinochloa crus-galli); test: Test B flooded paddy test; details: Echinochloa crus-galli, Flood, scale 0 to 100, read-out: Plant response rating, Barnyardgrass
Procedure, shortened: (§2)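 Visual injury scoring (0 = no effect, 100 = complete control) versus controls made 13 to 15 days after treatment in the greenhouse. Test species were grown in flooded paddy to the 2-leaf stage: rice, barnyardgrass, umbrella sedge, duck salad.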

[4] = system: duck salad (Heteranthera limosa); test: Test B flooded paddy test; details: Heteranthera limosa, Flood, scale 0 to 100, read-out: Plant response rating, Ducksalad
Procedure, shortened: as §2

[5] = system: rice (Oryza sativa); test: Test B flooded paddy test; details: Oryza sativa, Flood, scale 0 to 100, read-out: Plant response rating, Rice
Procedure, shortened: as §2

[6] = system: umbrella sedge (Cyperus difformis); test: Test B flooded paddy test; details: Cyperus difformis, Flood, scale 0 to 100, read-out: Plant response rating, Sedge, Umbrella
Procedure, shortened: as §2

[7] = system: lambsquarters (Chenopodium album); test: Test B pre/postemergence; details: Chenopodium album, post-emergence, Postemergence, scale 0 to 100 (0 no effect, 100 complete control), read-out: Lambsquarters plant response rating
Procedure, shortened: as §1

[8] = system: crabgrass (Digitaria sanguinalis); test: Test B pre/postemergence; details: Digitaria sanguinalis; for pest or weed control at 62 g/ha: 62 g ai/ha; for pest or weed control at 125 g/ha: 125 g ai/ha
Procedure, shortened: as §1

[9] = system: morningglory (Ipomoea coccinea); test: Test B pre/postemergence; details: Ipomoea; for pest or weed control at 62 g/ha: 62 g ai/ha; for pest or weed control at 125 g/ha: 125 g ai/ha
Procedure, shortened: as §1

[10] = system: wheat (Triticum aestivum); test: Test B pre/postemergence; details: Triticum aestivum, scale 0 to 100 (0 no effect, 100 complete control); for plant injury at 62 g/ha: 62 g ai/ha; for plant injury at 125 g/ha: 125 g ai/ha
Procedure, shortened: as §1

[11] = system: barnyardgrass (Echinochloa crus-galli); test: Test B pre/postemergence; details: Echinochloa crus-galli, post-emergence, Postemergence, scale 0 to 100 (0 no effect, 100 complete control), read-out: Barnyardgrass plant response rating
Procedure, shortened: as §1

[12] = system: giant foxtail (Setaria faberii); test: Test B pre/postemergence; details: Setaria faberi; for pest or weed control at 125 g/ha: 125 g ai/ha; for pest or weed control at 62 g/ha: 62 g ai/ha
Procedure, shortened: as §1

[13] = system: pigweed (Amaranthus retroflexus); test: Test B pre/postemergence; details: Amaranthus retroflexus, post-emergence, Postemergence, scale 0 to 100 (0 no effect, 100 complete control), read-out: Pigweed plant response rating
Procedure, shortened: as §1

[14] = system: Surinam grass (Brachiaria decumbens); test: Test B pre/postemergence; details: Urochloa decumbens; for pest or weed control at 125 g/ha: 125 g ai/ha; for pest or weed control at 62 g/ha: 62 g ai/ha
Procedure, shortened: as §1

[15] = system: corn (Zea mays); test: Test B pre/postemergence; details: Zea mays
Procedure, shortened: as §1

[16] = system: cocklebur (Xanthium strumarium); test: Test B pre/postemergence; details: Xanthium strumarium; for pest or weed control at 62 g/ha: 62 g ai/ha; for pest or weed control at 125 g/ha: 125 g ai/ha
Procedure, shortened: as §1

[17] = system: velvetleaf (Abutilon theophrasti); test: Test B pre/postemergence; details: Abutilon theophrasti; for pest or weed control at 62 g/ha: 62 g ai/ha; for pest or weed control at 125 g/ha: 125 g ai/ha
Procedure, shortened: as §1

[18] = post-emergence, Postemergence, scale 0 to 100 (0 no effect, 100 complete control), read-out: Crabgrass plant response rating
[19] = post-emergence, Postemergence, scale 0 to 100 (0 no effect, 100 complete control), read-out: Morningglory plant response rating
[20] = post-emergence, Postemergence, read-out: Wheat plant response rating
[21] = pre-emergence, Preemergence, read-out: Plant response rating, Wheat
[22] = post-emergence, Postemergence, scale 0 to 100 (0 no effect, 100 complete control), read-out: Foxtail, Giant plant response rating
[23] = post-emergence, Postemergence, scale 0 to 100 (0 no effect, 100 complete control), read-out: Surinam Grass plant response rating
[24] = post-emergence, Postemergence, scale 0 to 100 (0 no effect, 100 complete control), read-out: Cocklebur plant response rating
[25] = post-emergence, Postemergence, scale 0 to 100 (0 no effect, 100 complete control), read-out: Velvetleaf plant response rating

CCOC(=O)c1nc(-c2ccc(Br)cc2)nc(N)c1Cl [Compound 94, ethyl 6-amino-2-(4-bromophenyl)-5-chloro-4-pyrimidinecarboxylate]
pest or weed control at 62 g/ha ([1]; 62 g ai/ha): 40%
pest or weed control at 125 g/ha ([1]; 125 g ai/ha): 60%
pest or weed control at 62 g/ha ([2]; 62 g ai/ha): 30%
pest or weed control at 125 g/ha ([2]; 125 g ai/ha): 30%
pest or weed control at 125 g/ha ([3]; 125 g ai/ha): 0%
pest or weed control at 500 g/ha ([3]; 500 g ai/ha): 0%
pest or weed control at 125 g/ha ([4]; 125 g ai/ha): 100%
pest or weed control at 500 g/ha ([4]; 500 g ai/ha): 100%
plant injury at 125 g/ha ([5]; 125 g ai/ha): 0%
plant injury at 500 g/ha ([5]; 500 g ai/ha): 0%
pest or weed control at 125 g/ha ([6]; 125 g ai/ha): 90%
pest or weed control at 500 g/ha ([6]; 500 g ai/ha): 90%
pest or weed control at 62 g/ha ([7]; 62 g ai/ha): 90%
pest or weed control at 125 g/ha ([7]; 125 g ai/ha): 90%
pest or weed control at 62 g/ha [8, 18]: 70%
pest or weed control at 125 g/ha [8, 18]: 80%
pest or weed control at 62 g/ha ([8]; pre-emergence, Preemergence, scale 0 to 100, 0 no effect, 100 complete control, read-out: Plant response rating, Crabgrass): 40%
pest or weed control at 125 g/ha ([8]; pre-emergence, Preemergence, scale 0 to 100 (0 no effect, 100 complete control), read-out: Plant response rating, Crabgrass): 70%
pest or weed control at 62 g/ha [9, 19]: 80%
pest or weed control at 125 g/ha [9, 19]: 90%
pest or weed control at 62 g/ha ([9]; pre-emergence, Preemergence, scale 0 to 100, 0 no effect, 100 complete control, read-out: Plant response rating, Morningglory): 0%
pest or weed control at 125 g/ha ([9]; pre-emergence, Preemergence, scale 0 to 100 (0 no effect, 100 complete control), read-out: Plant response rating, Morningglory): 0%
plant injury at 62 g/ha [10, 20]: 40%
plant injury at 125 g/ha [10, 20]: 60%
plant injury at 62 g/ha [10, 21]: 30%
plant injury at 125 g/ha [10, 21]: 60%
pest or weed control at 62 g/ha ([11]; 62 g ai/ha): 80%
pest or weed control at 125 g/ha ([11]; 125 g ai/ha): 90%
pest or weed control at 125 g/ha [12, 22]: 60%
pest or weed control at 62 g/ha [12, 22]: 50%
pest or weed control at 125 g/ha ([12]; pre-emergence, Preemergence, scale 0 to 100 (0 no effect, 100 complete control), read-out: Plant response rating, Foxtail, Giant): 20%
pest or weed control at 62 g/ha ([12]; pre-emergence, Preemergence, scale 0 to 100, 0 no effect, 100 complete control, read-out: Plant response rating, Foxtail, Giant): 0%
pest or weed control at 62 g/ha ([13]; 62 g ai/ha): 90%
pest or weed control at 125 g/ha ([13]; 125 g ai/ha): 90%
pest or weed control at 125 g/ha [14, 23]: 80%
pest or weed control at 62 g/ha [14, 23]: 80%
pest or weed control at 125 g/ha ([14]; pre-emergence, Preemergence, scale 0 to 100 (0 no effect, 100 complete control), read-out: Plant response rating, Surinam Grass): 30%
pest or weed control at 62 g/ha ([14]; pre-emergence, Preemergence, scale 0 to 100, 0 no effect, 100 complete control, read-out: Plant response rating, Surinam Grass): 10%
plant injury at 62 g/ha ([15]; post-emergence, Postemergence, 62 g ai/ha, scale 0 to 100 (0 no effect, 100 complete control), read-out: Corn plant response rating): 70%
plant injury at 125 g/ha ([15]; post-emergence, Postemergence, 125 g ai/ha, scale 0 to 100 (0 no effect, 100 complete control), read-out: Corn plant response rating): 90%
Corn plant response rating (crop injury, 0 = no effect, 100 = complete kill) at 62 g/ha ([15]; pre-emergence, Preemergence, 62 g ai/ha, scale 0 to 100, 0 no effect, 100 complete control): 0%
Corn plant response rating (crop injury, 0 = no effect, 100 = complete kill) at 125 g/ha ([15]; pre-emergence, Preemergence, 125 g ai/ha, scale 0 to 100 (0 no effect, 100 complete control)): 0%
pest or weed control at 62 g/ha [16, 24]: 100%
pest or weed control at 125 g/ha [16, 24]: 100%
pest or weed control at 62 g/ha ([16]; pre-emergence, Preemergence, scale 0 to 100, 0 no effect, 100 complete control, read-out: Plant response rating, Cocklebur): 30%
pest or weed control at 125 g/ha ([16]; pre-emergence, Preemergence, scale 0 to 100 (0 no effect, 100 complete control), read-out: Plant response rating, Cocklebur): 50%
pest or weed control at 62 g/ha [17, 25]: 90%
pest or weed control at 125 g/ha [17, 25]: 100%
pest or weed control at 62 g/ha ([17]; pre-emergence, Preemergence, scale 0 to 100, 0 no effect, 100 complete control, read-out: Plant response rating, Velvetleaf): 40%
pest or weed control at 125 g/ha ([17]; pre-emergence, Preemergence, scale 0 to 100 (0 no effect, 100 complete control), read-out: Plant response rating, Velvetleaf): 70%
